Results taken from EPA's ToxValDB 9.5 (doi:10.2903/j.efsa.2016.4416).
≈ marks a conversion by molar mass, not a printed value.

How the values were obtained:
Neomysis kadiakensis = settings: for LC50: acute, mortality
Oncorhynchus mykiss = settings: for LC50: acute, duration: 96 hours, mortality
Folsomia candida = settings: chronic/long-term; duration: 28 days; mortality
Tagia sp. = settings: for NOEC: chronic/long-term, duration: 56 days, reproduction
Oryctolagus sp. = settings: developmental; development
Bibionidae = settings: chronic/long-term; duration: 22 days; other
Apis mellifera = settings: acute, mortality
Anas platyrhynchos = settings: acute; oral; unspecified; mortality

SMILES	LC50 (Neomysis kadiakensis; duration: 48 hours) [µg/mL]	LC50 (Neomysis kadiakensis; duration: 96 hours) [µg/mL]	LC50 (Oncorhynchus mykiss) [µg/mL]	NOEC (Folsomia candida) [mg/kg]	NOEC (Tagia sp.) [mg/kg]	NOAEL (Colinus virginianus; chronic, reproduction) [mg/kg-day]	NOAEL (Rattus norvegicus; subchronic, duration: 90 days, M) [mg/kg-day]	NOEC (Neomysis kadiakensis; chronic/long-term, other) [mg/L]	NOAEL (Oryctolagus sp.) [mg/kg-day]	NOEC (Oncorhynchus mykiss; chronic/long-term, duration: 28 days, growth) [mg/L]	NOEC (Bibionidae) [mg/L]	LD50 (Apis mellifera; dermal) [µg/piece]	LD50 (Apis mellifera; oral, unspecified) [µg/piece]	LC50 (Tagia sp.; acute, duration: 14 days, mortality) [mg/kg]	LD50 (Anas platyrhynchos) [mg/kg-day]	LD50 (Colinus virginianus; acute, oral, mortality) [mg/kg-day]	LD50 (Rattus norvegicus; acute, mortality) [mg/kg]	NOAEL (Rattus norvegicus; chronic, duration: 2 years, histopathology: nonneoplastic) [mg/kg-day]	NOAEL (Rattus norvegicus; reproduction developmental, organ weight) [mg/kg-day]
CS(=O)(=O)c1cc(C(F)(F)F)ccc1C(=O)C(C#N)C(=O)C1CC1 (configuration not stated)	24 (≈ 66.8 µM)	3.7 (≈ 10.3 µM)	> 15	> 100	9	25	–	–	–	–	–	–	–	–	–	–	–	–	–
CS(=O)(=O)c1cc(C(F)(F)F)ccc1C(=O)O [2-Methylsulfonyl-4-trifluoromethylbenzoic acid]	–	–	–	–	–	–	769	–	–	–	–	–	–	–	–	–	–	–	–
CS(=O)(=O)c1cc(C(F)(F)F)ccc1C(=O)c1cnoc1C1CC1 [Isoxaflutole]	> 0.077	–	> 1.7	–	8.9	–	–	0.001	5	0.08	0.1	> 100	> 109	> 500	> 2150	> 2150	> 5000	2	2
